Results published in ChEMBL document CHEMBL4431384, “Indole-based allosteric inhibitors of HIV-1 integrase” (Bioorg Med Chem Lett, 2016).
pEC50, pIC50: −log10 of the molar value.

What was measured:
[1] = molecular target: T1, Human immunodeficiency virus type 1 integrase (Human immunodeficiency virus 1, UniProt Q7ZJM1); experiment: Inhibition of recombinant full length C-terminal His-tagged HIV1 integrase expressed in Escherichia coli BL21(DE3) cells assessed as inhibition of recombinant C-terminal FLAG-tagged LEDGF/p75-induced integration of viral 32-mer blunt-ended U5 DNA into pBR322 DNA preincubated with enzyme for 30 mins followed by viral and target DNA addition and subsequent addition of LEDGF/p75 after 5 mins measured after 90 mins by HTRF assay; type: cell-based
[2] = molecular target: T1, Human immunodeficiency virus type 1 integrase; experiment: Inhibition of C-terminal FLAG-tagged LEDGF/p75 binding to recombinant full length N-terminal His-tagged HIV1 integrase expressed in Escherichia coli BL21(DE3) cells preincubated with enzyme for 30 mins followed by LEDGF/p75 addition by HTRF assay
[3] = molecular target: T1, Human immunodeficiency virus type 1 integrase; experiment: (§1) Inhibition of recombinant full length C-terminal His-tagged HIV1 integrase expressed in Escherichia coli BL21(DE3) cells assessed as reduction in LEDGF/p75 independent 3' processing activity using 32P-labeled blunt ended 21-mer DNA as substrate preincubated for 30 mins followed by substrate addition measured after 1 hr by […]
[4] = molecular target: T2, Human immunodeficiency virus type 1 integrase (Human immunodeficiency virus 1, UniProt Q7ZJM1, A128T); experiment: as §1, with “integrase A128T mutant” for “integrase”
[5] = molecular target: T2, Human immunodeficiency virus type 1 integrase; experiment: Inhibition of recombinant full length HIV1 C-terminal His-tagged integrase A128T mutant multimerization with N-terminal FLAG-tagged integrase A128T mutant expressed in Escherichia coli BL21(DE3) cells after 2.5 hrs by HTRF assay
[6] = molecular target: T1, Human immunodeficiency virus type 1 integrase; experiment: Inhibition of recombinant full length HIV1 C-terminal His-tagged integrase multimerization with N-terminal FLAG-tagged integrase expressed in Escherichia coli BL21(DE3) cells after 2.5 hrs by HTRF assay

T1 sequence (Q7ZJM1 whole entry): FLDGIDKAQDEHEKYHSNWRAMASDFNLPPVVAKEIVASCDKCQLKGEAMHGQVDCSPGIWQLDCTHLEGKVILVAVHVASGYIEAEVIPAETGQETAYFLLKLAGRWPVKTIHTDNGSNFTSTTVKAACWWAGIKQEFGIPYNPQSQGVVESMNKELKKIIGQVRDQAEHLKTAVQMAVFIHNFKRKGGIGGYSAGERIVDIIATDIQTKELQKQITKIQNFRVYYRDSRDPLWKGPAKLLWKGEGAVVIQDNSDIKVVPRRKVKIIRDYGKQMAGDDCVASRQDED
T2 sequence (Q7ZJM1 entry or part of it A128T): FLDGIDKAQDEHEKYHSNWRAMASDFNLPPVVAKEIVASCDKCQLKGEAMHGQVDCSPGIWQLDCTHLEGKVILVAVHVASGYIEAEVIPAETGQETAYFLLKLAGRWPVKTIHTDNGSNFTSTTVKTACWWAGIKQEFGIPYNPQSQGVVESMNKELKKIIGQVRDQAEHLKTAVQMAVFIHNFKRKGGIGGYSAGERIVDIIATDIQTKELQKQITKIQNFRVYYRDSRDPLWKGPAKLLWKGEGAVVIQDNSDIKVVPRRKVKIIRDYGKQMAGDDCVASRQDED

Structure (SMILES)	pIC50 [1]	also measured
Cn1c(CC(OC(C)(C)C)C(=O)O)c(-c2ccccc2)c2ccccc21 (stereo not drawn)	< 4.00	–
Cn1c(C(OC(C)(C)C)C(=O)O)c(-c2ccc3c(c2)CCCO3)c2ccccc21 (stereo not drawn)	5.35	pIC50 [2]: 4.54; pIC50 [3]: 5.49; pIC50 [4]: 6.05; pEC50 [5]: 4.80; pEC50 [6]: 4.79
COc1ccc(-n2c(C(OC(C)(C)C)C(=O)O)c(C)c3ccccc32)cc1 (stereo not drawn)	< 4.00	–
COc1ccc(-c2c(C(OC(C)(C)C)C(=O)O)n(Cc3ccccc3)c3ccccc23)cc1 (stereo not drawn)	4.23	–
COC(C(=O)O)c1c(C)nc2ccc(Br)cc2c1-c1ccc(Cl)cc1 (stereo not drawn)	5.89	–
Cn1c(C(OC(C)(C)C)C(=O)O)c(Cc2ccccc2)c2ccccc21 (stereo not drawn)	4.50	–
COc1ccc(-c2c(C(OC(C)(C)C)C(=O)O)n(C)c3ccccc23)cc1 (stereo not drawn)	4.49	–
Cn1c(C(OC(C)(C)C)C(=O)O)c(-c2ccccc2)c2ccccc21 (stereo not drawn)	4.36	–
